For data set [1] the following is noted: rabbit, in vivo.
The conditions of data set [2]: rabbit, in vivo. This is another data set of the same source.

The text below walks through data of patent publication US10342867B2 (priority 2014, dated 2019).

Marks after values point to notes of the source that are not given here.

“Monosulphate Heptadodecyl Sucrose [S12, reference compound]”: in data set [1], the “Body temperature one day after the first immunization, Mean” value is 39.4^a ° C; the “Body temperature one day after the second immunization, Mean” value is recorded as 39.7^a ° C; the “rise in body temperature one day after the first and second immunization” value is “about 0.5 °C”. For the same substance, in data set [2], the “Number of animals demonstrating a detectable adverse local reaction four weeks after the first immunization” value is 1/6 (redness) and the “Number of animals demonstrating a detectable adverse local reaction one week after the second immunization” value is 2/6 (redness/swelling).
